The values below are quoted from earlier work in patent US20090047276A1, “METHODS FOR […] OR TISSUE RE[…] A […]” (UNIVERSITY OF WASHINGTON, priority 2007, published 2009).

Where only a bound is given, the exact number is not on record here.

Data set [1] deals with GSK-3. Particulars: literature values (Ring et al. 2003; Cline et al. 2002); read-out: half-maximal effective concentration [EC50].
Data set [2] deals with GSK-3. Particulars: literature values (Ring et al. 2003; Cline et al. 2002).

With `O=[N+]([O-])c1ccc(NCCNc2ncc(-c3ncc[nH]3)c(-c3ccc(Cl)cc3Cl)n2)nc1` [CHIR-837], the EC50 in data set [1] is 375 nM. For the same compound, the “selectivity for GSK-3” value in data set [2] was > 5,000 fold.
For `Cc1c[nH]c(-c2cnc(NCCNc3ccc(C#N)cn3)nc2-c2ccc(Cl)cc2Cl)n1` [CHIR-911], the EC50 in data set [1] is […]. For the same compound, the “selectivity for GSK-3” value in data set [2] was […].
